Patent US20060035365A1, “Method for identifying cellular growth inhibitors” (priority 2002, published 2006)

Tests used:
[1] = system: S. aureus containing S1-1941, a plasmid expressing a xylose-inducible fabF anti-sense RNA; experiment: Agar assay for fabF-acting substances: revertant colonies in the zone of inhibition; type: cell-based, Staphylococcus aureus; conditions: for appearance of revertant colonies / zone of growth inhibition on assay plate: 10 μL sample per well, thiotetramycin 1 mg/mL in DMSO, cerulenin 20 μg/mL in DMSO, kanamycin 100 μg/mL in water, xylose 23.6 mM, overnight 37° C., visual inspection
Protocol: S. aureus containing S1-1941, a plasmid expressing a xylose-inducible fabF anti-sense RNA (described in WO 00/44906 and in Forsyth et al., Mole. Microbiol. 2002, 43: 1387-1400), are inoculated into an LB broth culture medium supplemented with […] of chloramphenicol, and grown overnight at 37° C. with shaking (225 rpm). The culture is then diluted in the LB medium to a final optical density (λ=600 nm) of 0.3. Diluted cells (750 μL) are then added to a molten LB-agar medium (30 mL) supplemented with xylose (23.6 mM) and glucose (0.19 g/100 mL) and equilibrated at 48° C. The molten mixture is briefly mixed and is then poured onto sterile disposable polystyrene 86×128 mm dishes (NUNC Cat. No. 242811), after which a TSP (=transferable solid phase screening system) casting tray (NUNC Cat. No. 445497) is placed on top to cast wells. The dishes are allowed to cool down to room temperature for about 15 minutes and are then stored for no more than 2 days at 4° C. until ready for sample dispensing. Samples (10 μL) of one or more test substances (500 μM) and samples of controls, each dissolved in 100% DMSO, are subsequently dispensed into wells and the plates incubated overnight at 37° C. The incubated plates are then inspected visually for the appearance of revertant colonies to determine whether the test substance(s) act at the fabF protein.
The fabF-targeting control will produce revertant colonies in and around a zone of inhibition, and the non-fabF targeting control will produce a clear zone of inhibition (i.e., devoid of revertant colonies). The zones of inhibition of the test substances are compared to those of the controls to screen for fabF-acting substances.
The assay protocol set forth in Part A was employed to test whether thiotetramycin is a fabF-acting antibacterial agent. A 10 μL sample of thiotetramycin dissolved in 100% DMSO (1 mg/mL) was dispensed into one well of the plate. In addition, a 10 μL sample of cerulenin in 100% DMSO (20 μg/mL) and a 10 μL sample of kanamycin in water (100 μg/mL) were respectively dispensed into two wells as controls. After incubation as described in Part A, the plates were inspected visually for zones of bacterial growth.

[2] = system: S. aureus strain SafabF/GFP; experiment: Liquid GFP reporter assay for fabF antisense revertants (Relative Fluorescence Index); type: cell-based, Staphylococcus aureus; conditions: for change of RFI with increasing xylose concentration: 0, 7 and 14 mM xylose, drug concentrations approximating 50% inhibition of growth in no-xylose cells, 16 hours
Text: The green fluorescent protein (GFP) reporter gene was used to identify fabF antisense revertants in liquid culture by the following method: S. aureus containing a plasmid encoding the antisense fabF DNA was used to develop an inducible GFP reporter system, where the GFP gene is transcriptionally silent until the fabF antisense containing plasmid DNA is deleted or rearranged. A plasmid, pM310, was constructed that consists of the fabF antisense vector (Forsyth et al, 2002), with a tetracycline repressor gene and its promoter (Geissendorfer et al., Appl. Microbiol. Biotechnol 1990, 33: 657-663) inserted downstream of the fabP antisense DNA. A second plasmid, pM302, was constructed that consists of the E. coli vector pUC19 (Gibco BRL) joined to the S. aureus vector pUB110 (ATCC 37015), through the EcoR1 and AatII restriction sites. At the pUC19 multicloning site, a GFP gene was inserted into the BamH1 and SalI restriction sites and a tetracycline operator containing promoter (Geissendorfer et al, 1990) was cloned into the EcoR1 and BamH1 sites. A S. aureus strain, SafabF/GFP, was constructed that contained both plasmids pM310 and pM302 and was resistant to chloramphenicol and kanamycin. SafabF/GFP was sensitive to xylose induction resulting in an increased sensitivity to cerulenin. In the presence of cerulenin, resistant revertants will be selected for, which have deleted the antisense vector, and along with this deletion, lost the tetracycline repressor gene. […] Revertants can be measured as a function of fluorescent readout relative to cell number.
To quantitatively measure the fabF revertants, a liquid assay was developed, where various concentrations of xylose were tested with various concentrations of the following test compounds: cerulenin, thiostrepton and ampicillin. […] A 96-well plate was used to measure growth of the culture and final absorbance after 16 hours of incubation at 37° C. […] The final absorbance as read at 590 nm (A590) and fluorescence of the GFP was measured by excitation at 485 nm wavelength and emission wavelength at 535 nm (E535), using a Tecan Spectrafluor Plus.
To detect a specific GFP response in the presence of a fabF selective inhibitor, cerulenin, the Relative Fluorescence Index (RFI) was calculated for each drug treatment and for each xylose treatment. The RFI is defined as E535/A590 ratio, normalized to the corresponding ratio calculated on no-xylose control cells within each drug test group. For instance, with 15 μg/ml cerulenin treatment, the E535/A590 ratio was calculated for 0, 7 and 14 mM xylose treated cells, and the ratio for each were divided by the E535/A590 ratio from the no-xylose treated cells. […]

| Molecule | appearance of revertant colonies / zone of growth inhibition on assay plate [1] | appearance of revertant colonies / zone of growth inhibition on assay plate ([1]; listed as Thiotetramycin) | conclusion whether test substance is a fabF-acting antibacterial agent ([1]; from comparison with cerulenin and kanamycin controls) | change of RFI with increasing xylose concentration [2] | maximum change of Relative Fluorescence Index (RFI) ([2]; 14 mM xylose and 15 μg/ml cerulenin, 16 hours at 37° C., normalized to no-xylose control cells) [fold] | appearance of revertant colonies / zone of growth inhibition on assay plate ([1]; listed as Cerulenin) |
| --- | --- | --- | --- | --- | --- | --- |
| thiotetramycin | several visually observable revertant bacterial colonies | growth of revertant colonies which appear as small white foci of growth in and around a zone of growth inhibition | selectively targets the fabF protein | – | – | – |
| C=C(NC(=O)C(=C)NC(=O)c1csc(C2=N[C@@H]3c4csc(n4)[C@H]4NC(=O)c5csc(n5)[C@H]([C@](C)(O)[C@@H](C)O)NC(=O)[C@H]5CSC(=N5)/C(=C/C)NC(=O)[C@H]([C@@H](C)O)NC(=O)c5csc(n5)[C@]3(CC2)NC(=O)[C@H](C)NC(=O)C(=C)NC(=O)[C@H](C)NC(=O)[C@H]([C@@H](C)CC)N[C@@H]2C=Cc3c([C@H](C)O)cc(nc3[C@H]2O)C(=O)O[C@@H]4C)n1)C(N)=O [thiostrepton] | – | – | – | No increase in RFI | – | – |
| CC1(C)S[C@@H]2[C@H](NC(=O)[C@H](N)c3ccccc3)C(=O)N2[C@H]1C(=O)O [ampicillin] | – | – | – | No increase in RFI | – | – |
| C/C=C/C/C=C/CCC(=O)[C@H]1O[C@H]1C(N)=O [cerulenin] | several visually observable revertant bacterial colonies | – | – | RFI increased with increasing xylose concentration | 9 | growth of revertant colonies in and around a zone of growth inhibition |
